Assay results: ChEMBL document CHEMBL1201862, “PubChem BioAssay data set” (2004)
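Values below derive from 48-hour exposures of cells grown in 96-well plates, with endpoints linearly interpolated between the two concentrations bracketing the appropriate inhibition level. At the GI50, growth is halved.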 Active and inactive are the calls of the source. No stated cut-off is given here; in the data, active = GI50 up to about 1.1 µM and inactive = higher.

Experiments:
Test in all cases: growth of human tumour cells (NCI), 48 h
A549 = system: A549
DU-145 = system: DU-145
HOP-62 = system: HOP-62
IGROV-1 = system: IGROV-1
MCF7 = system: MCF7
T47D = system: T47D
SF-539 = system: SF-539
K562 = system: K562
U-251 = system: U-251
TK-10 = system: TK-10
SF-268 = system: SF-268
Hs-578T = system: Hs-578T
XF498 = system: XF498
SNB-19 = system: SNB-19
LOX IMVI = system: LOX IMVI
UACC-257 = system: UACC-257
EKVX = system: EKVX
OVCAR-3 = system: OVCAR-3
CCRF-CEM = system: CCRF-CEM
SF-295 = system: SF-295

| SMILES | GI50 (A549) | GI50 (DU-145) | GI50 (HOP-62) | GI50 (IGROV-1) | GI50 (MCF7) | GI50 (T47D) | GI50 (SF-539) | GI50 (K562) | GI50 (U-251) | GI50 (TK-10) | GI50 (SF-268) | GI50 (Hs-578T) | GI50 (XF498) | GI50 (SNB-19) | GI50 (LOX IMVI) | GI50 (UACC-257) | GI50 (EKVX) | GI50 (OVCAR-3) | GI50 (CCRF-CEM) | GI50 (SF-295) |
| --- | --- | --- | --- | --- | --- | --- | --- | --- | --- | --- | --- | --- | --- | --- | --- | --- | --- | --- | --- | --- |
| CN1CCN(c2ccc3[nH]c(-c4ccc5[nH]c(-c6ccc(O)cc6)nc5c4)nc3c2)CC1 | 332 µM (inactive) | 329 µM (inactive) | 250 µM (inactive) | 117 µM (inactive) | 4.98 µM (inactive) | 9.4 µM (inactive) | 54.8 µM (inactive) | 23.3 µM (inactive) | 179 µM (inactive) | 705 µM (inactive) | 70.8 µM (inactive) | > 100 µM (inactive) | 34.4 µM (inactive) | 391 µM (inactive) | 85.5 µM (inactive) | 52.1 µM (inactive) | – | – | – | – |
| Cc1c(CNc2ccc(Cl)c(C(=O)NC(CC(=O)O)C(=O)O)c2)ccc2nc(N)nc(N)c12 (configuration not stated) | 1.33 µM (inactive) | 0.0588 µM (active) | 0.256 µM (active) | 0.0715 µM (active) | 0.499 µM (active) | > 100 µM (inactive) | 2.62 µM (inactive) | < 0.12 µM (active) | 0.134 µM (active) | 5.12 µM (inactive) | 0.209 µM (active) | 506 µM (inactive) | > 100 µM (inactive) | 0.322 µM (active) | < 0.0118 µM (active) | 5.55 µM (inactive) | 8.15 µM (inactive) | 6.46 µM (inactive) | 0.0753 µM (active) | 0.126 µM (active) |
| CC(C)S(=O)(=O)ON1C(=O)c2ccc(N(C)C)cc2C1=O | 25 µM (inactive) | > 10 µM (inactive) | 42.5 µM (inactive) | 20.8 µM (inactive) | 5.93 µM (inactive) | 9.4 µM (inactive) | 19 µM (inactive) | 3.41 µM (inactive) | 15.8 µM (inactive) | 20.5 µM (inactive) | 24 µM (inactive) | > 10 µM (inactive) | 17.7 µM (inactive) | 40.4 µM (inactive) | 13.2 µM (inactive) | 20.1 µM (inactive) | 22.3 µM (inactive) | 8.91 µM (inactive) | 0.918 µM (active) | 30.9 µM (inactive) |
| CCCCCCCCCOC(=S)NC | 24.8 µM (inactive) | – | – | 24.2 µM (inactive) | – | – | 17.6 µM (inactive) | 21.8 µM (inactive) | 16.9 µM (inactive) | 21.3 µM (inactive) | 19.5 µM (inactive) | – | 18.2 µM (inactive) | 30.8 µM (inactive) | 18.2 µM (inactive) | – | 28.1 µM (inactive) | 19.9 µM (inactive) | 19.7 µM (inactive) | 27.8 µM (inactive) |
| Cc1cc(Cl)ccc1NC(=O)C(=O)Cc1nc2ccc(C(=O)c3ccccc3)cc2nc1O | 75.3 µM (inactive) | – | 92 µM (inactive) | > 100 µM (inactive) | – | – | > 100 µM (inactive) | – | – | > 100 µM (inactive) | > 100 µM (inactive) | – | > 100 µM (inactive) | > 100 µM (inactive) | > 100 µM (inactive) | > 100 µM (inactive) | > 100 µM (inactive) | > 100 µM (inactive) | 35.6 µM (inactive) | 95.1 µM (inactive) |
| CC(=O)OC(OC(C)=O)c1ncccc1C(=O)OC(C)C | > 100 µM (inactive) | – | > 100 µM (inactive) | > 100 µM (inactive) | – | – | 56 µM (inactive) | 18.9 µM (inactive) | 18.3 µM (inactive) | > 100 µM (inactive) | 13.7 µM (inactive) | – | > 100 µM (inactive) | > 100 µM (inactive) | 20.9 µM (inactive) | > 100 µM (inactive) | > 100 µM (inactive) | > 100 µM (inactive) | 7.26 µM (inactive) | 42.4 µM (inactive) |
| O=C(Nc1cc(Cl)ccc1Cl)c1cc2cccc(Br)c2oc1=O | > 100 µM (inactive) | – | 47.2 µM (inactive) | > 100 µM (inactive) | – | – | 56.4 µM (inactive) | > 100 µM (inactive) | 70.5 µM (inactive) | > 100 µM (inactive) | – | – | 21.9 µM (inactive) | > 100 µM (inactive) | > 100 µM (inactive) | > 100 µM (inactive) | > 100 µM (inactive) | 59.8 µM (inactive) | > 100 µM (inactive) | 63.4 µM (inactive) |
| N#CCCN(c1ccc(/C=C2\N=C(Cc3ccccc3)OC2=O)cc1)S(=O)(=O)c1ccccc1 | > 100 µM (inactive) | – | > 100 µM (inactive) | > 100 µM (inactive) | – | – | > 100 µM (inactive) | > 100 µM (inactive) | > 100 µM (inactive) | > 100 µM (inactive) | > 100 µM (inactive) | – | > 100 µM (inactive) | > 100 µM (inactive) | > 100 µM (inactive) | > 100 µM (inactive) | > 100 µM (inactive) | > 100 µM (inactive) | > 100 µM (inactive) | > 100 µM (inactive) |
| CC1CCC2c3c([nH]c4ccccc34)C3C(=O)N(c4ccccc4)C(=O)C3C2C1 (configuration not stated) | 90.8 µM (inactive) | – | 32.7 µM (inactive) | 19.7 µM (inactive) | – | – | 6.64 µM (inactive) | 46.8 µM (inactive) | 64.9 µM (inactive) | 21.7 µM (inactive) | 22.9 µM (inactive) | – | 1.82 µM (inactive) | 32.6 µM (inactive) | 42.8 µM (inactive) | > 250 µM (inactive) | > 250 µM (inactive) | 49.8 µM (inactive) | 20 µM (inactive) | 15 µM (inactive) |
| C/C(CC(=O)Nc1cccc([N+](=O)[O-])c1)=N\NC(=O)C[n+]1ccccc1 | > 100 µM (inactive) | – | > 100 µM (inactive) | > 100 µM (inactive) | – | – | > 100 µM (inactive) | – | > 100 µM (inactive) | > 100 µM (inactive) | > 100 µM (inactive) | – | > 100 µM (inactive) | – | > 100 µM (inactive) | > 100 µM (inactive) | > 100 µM (inactive) | > 100 µM (inactive) | > 100 µM (inactive) | > 100 µM (inactive) |
| C/C(=N\N(C)C)c1sc(-n2nc(-c3ccccc3)cc2-c2ccccc2)nc1C | > 100 µM (inactive) | – | > 100 µM (inactive) | > 100 µM (inactive) | – | – | > 100 µM (inactive) | > 100 µM (inactive) | 91.6 µM (inactive) | 72.8 µM (inactive) | > 100 µM (inactive) | – | > 100 µM (inactive) | > 100 µM (inactive) | 16.3 µM (inactive) | > 100 µM (inactive) | 8.22 µM (inactive) | 47.9 µM (inactive) | > 100 µM (inactive) | 51.2 µM (inactive) |
